Test results as given in US20100119479A1, “THERAPEUTIC ANTIVIRAL PEPTIDES” (INTERMUNE, INC., priority 2008, published 2010).

Experiments:
[1] = target: T1, full-length NS3/NS4A-2 (HCV NS3 protease) (Hepatitis C virus genotype 1b, UniProt Q9WMX2); assay: NS3 Inhibition Assay (NS3-NS4 protease assay, RETS1 substrate); assay type: biochemical; conditions: NS3/NS4A-2 protease
T1 construct: Recombinant E. coli or Baculovirus full-length NS3; host or cells: E. coli or baculovirus (BV) expression
Protocol: NS3 Complex Formation with NS4A-2.
Recombinant E. coli or Baculovirus full-length NS3 was diluted to 3.33 μM with assay buffer and transferred material to an eppendorf tube and placed in a water bath in a 4° C. refrigerator. The appropriate amount of NS4A-2 diluted to […] in assay buffer was added to equal the volume of NS3 above (conversion factor—3.8 mg/272 μL assay buffer). The material was transferred to an eppendorf tube and placed in water bath in a 4° C. refrigerator.
After equilibration to 4° C., equal volumes of NS3 and NS4A-2 solutions were combined in an eppendorf tube, mix gently with a manual pipettor, and incubate mixture for 15 minutes in the 4° C. water bath. Final concentrations in the mixture are 1.67 μM NS3, 4.15 mM NS4A-2 (2485-fold molar excess NS4A-2).
After 15 minutes at 4° C., the NS3/NS4A-2 eppendorf tube was removed and place it in a room temperature water bath for 10 minutes. NS3/NS4A-2 was aliquoted at appropriate volumes and store at −80° C. (E. coli NS3 run at 2 nM in assay, aliquot at 25 μL. BV NS3 run at 3 nM in assay, aliquot at 30 μL).
Step a. Sample compounds were dissolved to 10 mM in DMSO then diluted to 2.5 mM (1:4) in DMSO. Typically, compounds were added to an assay plate at 2.5 mM concentration, yielding upon dilution a starting concentration of 50 microM in the assay inhibition curve. Compounds were serial diluted in assay buffer to provide test solutions at lower concentrations.
Step b. The E. coli. NS3/NS4A-2 was diluted to 4 nM NS3 (1:417.5 of 1.67 μM stock−18 μL1.67 μM stock+7497 μL assay buffer). The BV NS3/NS4A-2 was diluted to 6 nM NS3 (1:278.3 of 1.67 μM stock−24 μL1.67 μM stock+6655 μL assay buffer).
Step c. Using the manual multichannel pipettor, and being careful not to introduce bubbles into the plate, 50 μL assay buffer were added to wells A01-H01 of a black Costar 96-well polypropylene storage plate.
Step d. Using the manual multichannel pipettor, and being careful not to introduce bubbles into the plate, 50 μL of diluted NS3/NS4A-2 from Step b were added to wells A02-H12 of the plate in Step c.
Step e. Using the manual multichannel pipettor, and being careful not to introduce bubbles into the plate, 25 μL of the wells in drug dilution plate in Step a were transferred to corresponding wells in assay plate in Step d. The tips on the multichannel pipettor were changed for each row of compounds transferred.
Step f Using the manual multichannel pipettor, and being careful not to introduce bubbles into the plate, the contentes of the wells from the assay plate in Step e were mixed by aspirating and dispensing 35 μL of the 75 μL in each well five times. The tips on multichannel pipettor were changed for each row of wells mixed.
Step g. The plate was covered with a polystyrene plate lid, and the plate from Step f containing NS3 protease and sample compounds was pre-incubated 10 minutes at room temperature.
While plate from Step g is pre-incubating, the RETS1 substrate was diluted in a 15 mL polypropylene centrifuge tube. The RETS1 substrate was diluted to 8 μM (1:80.75 of 646 μM stock—65 μL 646 μM stock+5184 μL assay buffer).
After the plate in Step g was done pre-incubating, and using the manual multichannel, 25 μL of substrate were added to all wells on the plate. The contents of the wells of the plate were quickly mixed, as in Step f, mixing 65 μL of the 100 μL in the wells.
The plate was read in kinetic mode on the Molecular Devices SpectraMax Gemini XS plate reader. Reader settings: Read time: 30 minutes, Interval: 36 seconds, Reads: 51, Excitation λ: 335 nm, Emission λ: 495 nm, cutoff: 475 nm, Automix: off, Calibrate: once, PMT: high, Reads/well: 6, Vmax pts: 21 or 28/51 depending on length of linearity of reaction
IC50s are determined using a four parameter curve fit equation, and converted to Ki's using the following Km's: […]
Full-length E. coli NS3−2.03 μM
Full-length BV NS3−1.74 μM
where Ki=IC50/(1+[S]/Km))

[2] = test system: HCV sub-genomic replicon, GS4.3 (HuH-7 hepatoma cells); assay: Quantitation by ELISA of NPTII in the HCV sub-genomic replicon, GS4.3; assay type: cell-based; conditions: Hepatitis C virus, GS4.3 replicon cells, 72 h incubation
From the text: Quantitation by ELISA of the Selectable Marker Protein, Neomycin Phosphotransferase II (NPTII) in the HCV Sub-Genomic Replicon, GS4.3
The HCV sub-genomic replicon (1377/NS3-3′, accession No. AJ242652), stably maintained in HuH-7 hepatoma cells, was created by Lohmann et al. Science 285: 110-113 (1999). The replicon-containing cell culture, designated GS4.3, was obtained from Dr. Christoph Seeger of the Institute for Cancer Research, Fox Chase Cancer Center, Philadelphia, Pa.
GS4.3 cells were maintained at 37° C., 5% CO2, in DMEM (Gibco 11965-092) supplemented with L-glutamine 200 mM (100×) (Gibco25030-081), non-essential amino acids (NEAA)(Biowhittaker 13-114E), heat-inactivated (HI) Fetal Bovine Serum(FBS)(Hyclone SH3007.03) and 750 μg/mL geneticin (G418)(Gibco 10131-035). Cells were sub-divided 1:3 or 4 every 2-3 days.
24 h prior to the assay, GS4.3 cells were collected, counted, and plated in 96-well plates (Costar 3585) at 7500 cells/well in […] standard maintenance medium (above) and incubated in the conditions above. To initiate the assay, culture medium was removed, cells were washed once with PBS (Gibco 10010-023) and 90 μl Assay Medium (DMEM, L-glutamine, NEAA, 10% HI FBS, no G418) was added. Inhibitors were made as a 10× stock in Assay Medium, (3-fold dilutions from 10 μM to […] final concentration, final DMSO concentration 1%), […] were added to duplicate wells, plates were rocked to mix, and incubated as above for 72 h.
An NPTII Elisa kit was obtained from AGDIA, Inc. (Compound direct ELISA test system for Neomycin Phosphotransferase II, PSP 73000/4800). Manufacturer's instructions were followed, with some modifications. 10×PEB-1 lysis buffer was made up to include 500 μM PMSF (Sigma P7626, 50 mM stock in isopropanol). After 72 h incubation, cells were washed once with PBS and […] PEB-1 with PMSF was added per well. Plates were agitated vigorously for 15 minutes, room temperature, then frozen at −70° C. Plates were thawed, lysates were mixed thoroughly, and 100 μl were applied to an NPTII Elisa plate. A standard curve was made. Lysate from DMSO-treated control cells was pooled, serially diluted with PEB-1 with PMSF, and applied to duplicate wells of the ELISA plate, in a range of initial lysate amount of 150 μL-2.5 μL. In addition, 100 μL buffer alone was applied in duplicate as a blank. Plates were sealed and gently agitated at room temperature for 2 h. Following capture incubation, the plates were washed 5×300 μL with PBS-T (0.5% Tween-20, PBS-T was supplied in the ELISA kit). For detection, a 1× dilution of enzyme conjugate diluent MRS-2 (5×) was made in PBS-T, into which 1:100 dilutions of enzyme conjugates A and B were added, as per instructions. Plates were resealed, and incubated with agitation, covered, room temperature, for 2 h. The washing was then repeated and 100 μL, of room temperature TMB substrate was added. After approximately 30 minutes incubation (room temperature, agitation, covered), the reaction was stopped with 50 μL, 3M sulfuric acid. Plates were read at 450 nm on a Molecular Devices Versamax plate reader.
Inhibitor effect was expressed as a percentage of DMSO-treated control signal, and inhibition curves were calculated using a 4-parameter equation: y=A+((B−A)/(1+((C/x)̂D))), where C is half-maximal activity or EC50.

T1 sequence (Q9WMX2 1027-1657): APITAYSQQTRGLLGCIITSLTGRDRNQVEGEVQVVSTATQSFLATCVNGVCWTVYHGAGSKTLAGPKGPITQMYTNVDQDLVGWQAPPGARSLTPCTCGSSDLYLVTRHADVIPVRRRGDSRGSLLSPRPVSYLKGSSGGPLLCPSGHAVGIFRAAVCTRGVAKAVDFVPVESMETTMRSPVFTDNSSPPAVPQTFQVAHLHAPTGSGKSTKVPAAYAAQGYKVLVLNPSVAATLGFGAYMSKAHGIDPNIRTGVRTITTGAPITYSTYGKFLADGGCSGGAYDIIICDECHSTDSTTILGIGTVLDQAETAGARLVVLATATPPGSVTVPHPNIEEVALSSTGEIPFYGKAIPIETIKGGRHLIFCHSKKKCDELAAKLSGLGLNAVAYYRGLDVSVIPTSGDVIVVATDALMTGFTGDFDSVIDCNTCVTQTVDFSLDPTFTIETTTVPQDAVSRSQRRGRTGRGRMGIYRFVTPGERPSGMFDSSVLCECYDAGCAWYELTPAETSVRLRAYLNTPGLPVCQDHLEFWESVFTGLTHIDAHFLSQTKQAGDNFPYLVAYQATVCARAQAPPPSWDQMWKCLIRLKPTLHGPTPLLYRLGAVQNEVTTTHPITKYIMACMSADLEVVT
T1 sequence (Q9WMX2 1658-1711): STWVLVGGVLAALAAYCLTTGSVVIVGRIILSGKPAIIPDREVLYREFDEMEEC

Row | SMILES | IC50 [1] | EC50 [2]
1 | CC[C@@H]1CC1(NC(=O)[C@@H]1C[C@@H](OC(=O)N2Cc3cccc(Cl)c3C2)CN1C(=O)[C@@H](Nc1cccnc1)C(C)(C)C)C(=O)NS(=O)(=O)C1CC1 (some centres unmarked) [Compound 1] | < 100 nM | < 100 nM
2 | CC[C@@H]1C[C@]1(NC(=O)[C@@H]1C[C@@H](OC(=O)N2Cc3cccc(F)c3C2)CN1C(=O)[C@@H](Nc1ccc(C(=O)OC)cc1)C(C)(C)C)C(=O)NS(=O)(=O)C1CC1 [Compound 2] | < 100 nM | 100 to 1000 nM
3 | CC[C@@H]1C[C@]1(NC(=O)[C@@H]1C[C@@H](OC(=O)N2Cc3cccc(F)c3C2)CN1C(=O)[C@@H](Nc1ccc(C(=O)O)cc1)C(C)(C)C)C(=O)NS(=O)(=O)C1CC1 [Compound 3] | < 100 nM | > 1000 nM
4 | CCOC(=O)c1cccc(N[C@H](C(=O)N2C[C@H](OC(=O)N3Cc4cccc(F)c4C3)C[C@H]2C(=O)N[C@]2(C(=O)NS(=O)(=O)C3CC3)C[C@H]2CC)C(C)(C)C)c1 [Compound 4] | < 100 nM | 100 to 1000 nM
5 | CC[C@@H]1C[C@]1(NC(=O)[C@@H]1C[C@@H](OC(=O)N2Cc3cccc(F)c3C2)CN1C(=O)[C@@H](Nc1cccc(C(=O)O)c1)C(C)(C)C)C(=O)NS(=O)(=O)C1CC1 [Compound 5] | < 100 nM | > 1000 nM
6 | C=C[C@@H]1C[C@]1(NC(=O)[C@@H]1C[C@@H](Oc2nccc3ccccc23)CN1C(=O)[C@@H](Nc1ccc(F)c(C(F)(F)F)c1)C(C)(C)C)C(=O)NS(=O)(=O)C1CC1 [Compound 6] | < 100 nM | < 100 nM
7 | C=C[C@@H]1C[C@]1(NC(=O)[C@@H]1C[C@@H](Oc2nccc3ccccc23)CN1C(=O)[C@@H](Nc1cc(F)cc(C(F)(F)F)c1)C(C)(C)C)C(=O)NS(=O)(=O)C1CC1 [Compound 7] | < 100 nM | < 100 nM
8 | CC[C@@H]1C[C@]1(NC(=O)[C@@H]1C[C@@H](OC(=O)N2Cc3cccc(F)c3C2)CN1C(=O)[C@@H](Nc1cccc(C(=O)N2CCN(C)CC2)c1)C(C)(C)C)C(=O)NS(=O)(=O)C1CC1 [Compound 8] | < 100 nM | > 1000 nM
9 | CC[C@@H]1C[C@]1(NC(=O)[C@@H]1C[C@@H](OC(=O)N2Cc3cccc(F)c3C2)CN1C(=O)[C@@H](Nc1cccc(C(=O)N2CCNCC2)c1)C(C)(C)C)C(=O)NS(=O)(=O)C1CC1 [Compound 9] | < 100 nM | > 1000 nM
10 | CC[C@@H]1C[C@]1(NC(=O)[C@@H]1C[C@@H](OC(=O)N2Cc3cccc(F)c3C2)CN1C(=O)[C@@H](Nc1cccc(S(=O)(=O)N2CCOCC2)c1)C(C)(C)C)C(=O)NS(=O)(=O)C1CC1 [Compound 10] | < 100 nM | > 1000 nM
11 | CC[C@@H]1C[C@]1(NC(=O)[C@@H]1C[C@@H](OC(=O)N2Cc3cccc(F)c3C2)CN1C(=O)[C@@H](Nc1ccc(C(=O)N2CCOCC2)cc1)C(C)(C)C)C(=O)NS(=O)(=O)C1CC1 [Compound 11] | < 100 nM | > 1000 nM
12 | CC[C@@H]1C[C@]1(NC(=O)[C@@H]1C[C@@H](OC(=O)N2Cc3cccc(F)c3C2)CN1C(=O)[C@@H](Nc1cccc(OC(F)(F)F)c1)C(C)(C)C)C(=O)NS(=O)(=O)C1CC1 [Compound 12] | < 100 nM | < 100 nM
13 | CC[C@@H]1C[C@]1(NC(=O)[C@@H]1C[C@@H](OC(=O)N2Cc3cccc(F)c3C2)CN1C(=O)[C@@H](Nc1cccc(C(=O)NCCN(C)C)c1)C(C)(C)C)C(=O)NS(=O)(=O)C1CC1 [Compound 13] | < 100 nM | > 1000 nM
14 | C=C[C@@H]1C[C@]1(NC(=O)[C@@H]1Cc2cc(Oc3cccc(Cl)c3)ccc2CN1C(=O)[C@@H](Nc1cccc(C(F)(F)F)c1)C(C)(C)C)C(=O)NS(=O)(=O)C1(C)CC1 [Compound 21] | < 100 nM | –
15 | C=C[C@@H]1C[C@]1(NC(=O)[C@@H]1Cc2cc(Oc3cccc(Cl)c3)ccc2CN1C(=O)[C@@H](Nc1ccc(F)cc1)C(C)(C)C)C(=O)NS(=O)(=O)C1(C)CC1 [Compound 25] | < 100 nM | –
16 | C=C[C@@H]1C[C@]1(NC(=O)[C@H]1Cc2cc(Oc3cccc(Cl)c3)ccc2CN1C(=O)[C@@H](Nc1ccc(F)cc1)C(C)(C)C)C(=O)NS(=O)(=O)C1(C)CC1 [Compound 26] | 100 to 1000 nM | –
17 | C=C[C@@H]1C[C@]1(NC(=O)[C@@H]1Cc2cc(Oc3cccc(Cl)c3)ccc2CN1C(=O)[C@@H](Nc1ccc(F)cc1)C(C)(C)C)C(=O)NS(=O)(=O)C1CC1 [Compound 27] | < 100 nM | –
18 | C=C[C@@H]1C[C@]1(NC(=O)[C@@H]1Cc2cc(Oc3cccc(Cl)c3)ccc2CN1C(=O)[C@@H](Nc1ccc(F)cc1)C(C)(C)C)C(=O)NS(=O)(=O)C1CC1 [Compound 28] | 100 to 1000 nM | –
19 | CC[C@@H]1C[C@]1(NC(=O)[C@@H]1C[C@@H](Oc2cc(-c3nc(C(C)C)cs3)nc3c(C)c(OC)ccc23)CN1C(=O)[C@@H](Nc1cc(F)cc(C(F)(F)F)c1)C(C)(C)C)C(=O)NS(=O)(=O)C1(C)CC1 [Compound 300] | – | < 100 nM
